We go through 49 compounds from US20120328569A1, “INHIBITORS OF HEPATITIS C VIRUS NS5B POLYMERASE” (priority 2010, published 2012).

Where two headings read alike, the source gives them in different places.

The experiment deals with HCV genotype 1b replicon. Kind of experiment: HCV replicon assay, cell ELISA with antibody to replicon-encoded NS3/4A (genotype 1b replicon). Type of experiment: cell-based, hepatitis C virus. The following applies: 96 hours incubation, NS3/4A cell ELISA. An outline of the steps:
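Replicon-harbouring cells carrying neomycin phosphotransferase were incubated 96 h with a compound dilution series without G418. Replication was quantified indirectly by a cell ELISA detecting replicon-encoded NS3/4A. IC50 values were calculated relative to DMSO control with a four-parameter fit.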
(A replicon is a self-replicating genome or part of one, used to study replication in cells.)

The mark [1] stands for this setting: Hepatitis C virus, 96 h, read-out: 1b IC50(nM), HCV genotype 1b replicon.

For `CNC(=O)c1c(-c2ccc(F)cc2)oc2cc(N(C)S(C)(=O)=O)c(-c3ccc(OC)c(-c4nc5c(CC#N)cccc5[nH]4)c3)cc12` [Example 427], under setting [1], the half-maximal inhibitory concentration (IC50) (as a rule, the concentration at which inhibition is half-maximal) is 4.35 nM. `CNC(=O)c1c(-c2ccc(F)cc2)oc2cc(N(C)S(C)(=O)=O)c(-c3ccc(OC)c(-c4nc5c(C(C)(C)C#N)cccc5o4)c3)cc12` [Example 428]: the concentration for half-maximal inhibition (IC50) under setting [1] came out at 29.1 nM.

On to `CNC(=O)c1c(-c2ccc(F)cc2)oc2cc(N(C)S(C)(=O)=O)c(-c3ccc(CC#N)c(-c4nc5c(F)cccc5o4)c3)cc12` [Example 429], for which, under setting [1], the IC50 amounted to 4.91 nM.

Regarding `CNC(=O)c1c(-c2ccc(F)cc2)oc2cc(N(C)S(C)(=O)=O)c(-c3cc4c(c(-c5nc6c(F)cccc6o5)c3)OCCO4)cc12` [Example 436], the IC50 under setting [1] worked out at 4.37 nM. Still for that read-out and setting: for `CNC(=O)c1c(-c2ccc(F)cc2)oc2cc(N(C)S(C)(=O)=O)c(-c3ccc(-c4ccco4)c(-c4nc5c(F)cccc5o4)c3)cc12` [Example 478] the value was 8.65 nM.

In the case of `CNC(=O)c1c(-c2ccc(F)cc2)oc2cc(N(C)S(C)(=O)=O)c(-c3ccc(-c4cnco4)c(-c4nc5c(F)cccc5o4)c3)cc12` [Example 479], the IC50 under setting [1] stood at 1.95 nM. Regarding `CNC(=O)c1c(-c2ccc(F)cc2)oc2cc(N(C)S(C)(=O)=O)c(-c3ccc(-c4cnco4)c(-c4nc5c(Cl)cccc5o4)c3)cc12` [Example 480], under setting [1], the IC50 stood at 3.01 nM. For the compound `CNC(=O)c1c(-c2ccc(F)cc2)oc2cc(N(C)S(C)(=O)=O)c(-c3ccc(N4CCOC4=O)c(-c4nc5c(F)cccc5o4)c3)cc12` [Example 483], the 50% inhibitory concentration (IC50) under setting [1] is 2.48 nM. Still for that read-out and setting: for `CNC(=O)c1c(-c2ccc(F)cc2)oc2cc(N(C)S(C)(=O)=O)c(-c3ccc(N4CCNC4=O)c(-c4nc5c(F)cccc5o4)c3)cc12` [Example 484] the value was 3.31 nM; for `CNC(=O)c1c(-c2ccc(F)cc2)oc2cc(N(C)S(C)(=O)=O)c(-c3csc(-c4nc5c(F)cccc5o4)c3)cc12` [Example 504], 1.53 nM; for `CNC(=O)c1c(-c2ccc(F)cc2)oc2cc(N(C)S(C)(=O)=O)c(-c3cnc(OC)c(-c4nc5c(F)cccc5o4)c3)cc12` [Example 507], 0.68 nM. `CNC(=O)c1c(-c2ccc(F)cc2)oc2cc(N(C)S(C)(=O)=O)c(-c3cc(-c4nc5ncccc5o4)ccn3)cc12` [Example 509]: the concentration for half-maximal inhibition (IC50) under setting [1] was found to be 3 nM. Consider `CNC(=O)c1c(-c2ccc(F)cc2)oc2cc(N(C)S(C)(=O)=O)c(-c3cccc(-c4nc5c(o4)CCCC5(F)F)c3)cc12` [Example 515], for which the IC50 under setting [1] is 3.99 nM. Same read-out and setting: to `CNC(=O)c1c(-c2ccc(F)cc2)oc2cc(N(C)S(C)(=O)=O)c(-c3cccc(-c4cc5c(o4)CCN(C(C)=O)C5)c3)cc12` [Example 517] belongs 7 nM; to `CNC(=O)c1c(-c2ccc(F)cc2)oc2cc(N(C)S(C)(=O)=O)c(C#Cc3ccccc3)cc12` [Example 547], 23.2 nM. Consider `CNC(=O)c1c(-c2ccc(F)cc2)oc2cc(N(C)S(C)(=O)=O)c(-c3cccc(-n4nc5ccccc5c4-c4cccnc4)c3)cc12` [Example 549], for which the IC50 under setting [1] came to 65.9 nM.

For the compound `CNC(=O)c1c(-c2ccc(F)cc2)oc2cc(N(C)S(C)(=O)=O)c(-c3ccc(OC)c(-c4nc5cc(F)cc(F)c5o4)c3)cc12` [Example 551], under setting [1], the IC50 stood at 1.3 nM. Same read-out and setting: for `CNC(=O)c1c(-c2ccc(F)cc2)oc2cc(N(C)S(C)(=O)=O)c(-c3cc(C#N)cc(-c4cc5ccccc5[nH]4)c3)cc12` [Example 558] the value was 5.81 nM. Turning to `CNC(=O)c1c(-c2ccc(F)cc2)oc2cc(N(CCF)S(C)(=O)=O)c(-c3cccc(-c4nc5ncccc5o4)c3)cc12` [Example 581], the IC50 (read-out: 1b IC50, HCV genotype 1b replicon) is 0.5 nM. Turning to `CNC(=O)c1c(-c2ccc(F)cc2)oc2cc(N(C)S(C)(=O)=O)c(-c3ccc4c(c3)-c3c(Cl)c5ccccc5n3C(C3CC3)O4)cc12` (stereo not shown) [Example 588], the IC50 under setting [1] was determined as 50.4 nM. With `CNC(=O)c1c(-c2ccc(F)cc2)oc2cc(N(C)S(C)(=O)=O)c(-c3ccc4c(c3)-c3[nH]c5ccccc5c3C(c3cccnc3)O4)cc12` (stereo not shown) [Example 589], the concentration for half-maximal inhibition (IC50) under setting [1] came out at 3.38 nM. Same read-out and setting: to `CNC(=O)c1c(-c2ccc(F)cc2)oc2cc(N(C)S(C)(=O)=O)c(-c3ccc4c(c3)-c3[nH]c5ccccc5c3C(C(C)(C)C)O4)cc12` (stereo not shown) [Example 590] belongs 44.1 nM. As to `CNC(=O)c1c(-c2ccc(F)cc2)oc2cc(N(C)S(C)(=O)=O)c(-c3cccc(-c4cc5cc(F)ccc5n4CCO)c3)cc12` [Example 598], the IC50 under setting [1] was 3.43 nM.

As for `CNC(=O)c1c(-c2ccc(F)cc2)oc2cc(N(C)S(C)(=O)=O)c(-c3ccc(O)c(-c4nc5c(F)cccc5o4)c3)cc12` [Example 606, 5-(3(4-fluorobenzo[d]oxazol-2-yl)-4-hydroxyphenyl)-2(4-fluorophenyl)-N-methyl-6-(N-methylmethylsulfonamido)benzofuran-3-carboxamide], the IC50 under setting [1] turned out to be 9.32 nM. On the same count and under the same terms, to `CNC(=O)c1c(-c2ccc(F)cc2)oc2cc(N(C)S(C)(=O)=O)c(-c3ccc(O)c(-c4nc5c(Cl)cccc5o4)c3)cc12` [Example 607] belongs 27.1 nM; to `CNC(=O)c1c(-c2ccc(F)cc2)oc2cc(N(C)S(C)(=O)=O)c(-c3cc(-c4nc5cccc(F)c5o4)ccc3O)cc12` [Example 611], 11.1 nM; to `CNC(=O)c1c(-c2ccc(F)cc2)oc2cc(N(C)S(C)(=O)=O)c(-c3ccc(OCCO)c(-c4nc5c(F)cccc5o4)c3)cc12` [Example 620], 1.66 nM.

On to `CNC(=O)c1c(-c2ccc(F)cc2)oc2cc(N(C)S(C)(=O)=O)c(-c3ccc(OCC(F)F)c(-c4cc5ccccc5[nH]4)c3)cc12` [Example 622], for which the IC50 under setting [1] turned out to be 647 nM. Still for that read-out and setting: for `CNC(=O)c1c(-c2ccc(F)cc2)oc2cc(N(C)S(C)(=O)=O)c(-c3cc(OS(C)(=O)=O)cc(-c4nc5c(F)cccc5o4)c3)cc12` [Example 627] the value was 1.4 nM; for `CNC(=O)c1c(-c2ccc(F)cc2)oc2cc(N(C)S(C)(=O)=O)c(-c3ccc(OC)c(-c4nc5cc(C(N)=O)ccc5o4)c3)cc12` [Example 632], 4.61 nM; for `CNC(=O)c1c(-c2ccc(F)cc2)oc2cc(N(C)S(C)(=O)=O)c(-c3ccc(OC)c(-c4nc5c(C(=O)NC)cccc5o4)c3)cc12` [Example 637], 4.03 nM. Regarding `CNC(=O)c1c(-c2ccc(F)cc2)oc2cc(N(C)S(C)(=O)=O)c(-c3ccc(OC)c(-c4nc5c(C(=O)Nc6ccccc6)cccc5o4)c3)cc12` [Example 638], under setting [1], the IC50 stood at 29.8 nM. The same measure, in the same setting: to `CNC(=O)c1c(-c2ccc(F)cc2)oc2cc(N(C)S(C)(=O)=O)c(-c3cc(C(=O)O)cc(-c4nc5c(F)cccc5o4)c3)cc12` [Example 650, 3-(4-fluorobenzo[d]oxazol-2-yl)-5-(2-(4-fluorophenyl)-3-(methylcarbamoyl)-6-(N-methylmethylsulfonamido)benzofuran-5-yl)benzoic acid] belongs 55.7 nM; to `CNC(=O)c1c(-c2ccc(F)cc2)oc2cc(N(C)S(C)(=O)=O)c(-c3ccc(C(=O)O)c(-c4nc5c(F)cccc5o4)c3)cc12` [Example 651], 155 nM; to `CNC(=O)c1cc(-c2nc3c(F)cccc3o2)cc(-c2cc3c(C(=O)NC)c(-c4ccc(F)cc4)oc3cc2N(C)S(C)(=O)=O)c1` [Example 654], 3.65 nM. For `CNC(=O)c1c(-c2ccc(F)cc2)oc2cc(N(C)S(C)(=O)=O)c(-c3ccc(C(=O)N(C)C)c(-c4nc5c(F)cccc5o4)c3)cc12` [Example 655], the IC50 under setting [1] came to 2.52 nM. On to `CNC(=O)c1ccc(-c2cc3c(C(=O)NC)c(-c4ccc(F)cc4)oc3cc2N(C)S(C)(=O)=O)cc1-c1nc2c(F)cccc2o1` [Example 656], for which the IC50 under setting [1] came to 8.41 nM. As to `CNC(=O)c1c(-c2ccc(F)cc2)oc2cc(N(C)S(C)(=O)=O)c(-c3ccc(OC)c(-c4nc5ccc(-c6cncnc6)cc5o4)c3)cc12` [Example 658, 2-(4-fluorophenyl)-5-(4-methoxy-3-(6-(pyrimidin-5-yl)benzo[d]oxazol-2-yl)phenyl)-N-methyl-6-(N-methylmethylsulfonamido) benzofuran-3-carboxamide], the 50% inhibitory concentration (IC50) under setting [1] came out at 8.53 nM.

As to `CNC(=O)c1c(-c2ccc(F)cc2)oc2cc(N(C)S(C)(=O)=O)c(-c3ccc(OC)c(-c4nc5ccc(-c6cccnc6)cc5o4)c3)cc12` [Example 659], the IC50 under setting [1] was found to be 8.62 nM. `CNC(=O)c1c(-c2ccc(F)cc2)oc2cc(N(C)S(C)(=O)=O)c(-c3ccc(OC)c(-c4nc5cc(-c6cncnc6)ccc5o4)c3)cc12` [Example 663]: the IC50 under setting [1] was found to be 2.5 nM. Same read-out and setting: to `CNC(=O)c1c(-c2ccc(F)cc2)oc2cc(N(C)S(C)(=O)=O)c(-c3cccc(-c4cc5c(F)cc(F)cc5s4)c3)cc12` [Example 685] belongs 12 nM; to `CNC(=O)c1c(-c2ccc(F)cc2)oc2cc(N(C)S(C)(=O)=O)c(-c3ccc(OC)c(-c4csc5ncccc45)c3)cc12` [Example 686], 17.6 nM; to `CNC(=O)c1c(-c2ccc(F)cc2)oc2cc(N(C)S(C)(=O)=O)c(-c3ccc(OC)c(-c4cc5ccc(F)cc5s4)c3)cc12` [Example 687], 27.3 nM.

Consider `CNC(=O)c1c(-c2ccc(F)cc2)oc2cc(N(C)S(C)(=O)=O)c(-c3ccc(OC)c(-c4cc5ncccc5s4)c3)cc12` [Example 688], for which, under setting [1], the 50% inhibitory concentration (IC50) came to 7.53 nM. Turning to `CNC(=O)c1c(-c2ccc(F)cc2)oc2cc(N(CC3CC(O)C3)S(C)(=O)=O)c(-c3ccc(OC)c(-c4nc5c(F)cccc5o4)c3)cc12` (stereo not shown) [Example 701], the IC50 under setting [1] amounted to 6.21 nM. In the case of `CNC(=O)c1c(-c2ccc(F)cc2)oc2cc(N(CC3CC3)S(C)(=O)=O)c(-c3ccc(OC)c(-c4nc5c(F)cc(F)cc5o4)c3)cc12` [Example 705], the concentration for half-maximal inhibition (IC50) under setting [1] stood at 15.6 nM.

`CNC(=O)c1c(-c2ccc(F)cc2)oc2cc(N(CC3CC3)S(C)(=O)=O)c(-c3ccc(OC)c(-c4nc5cc(F)cc(F)c5o4)c3)cc12` [Example 706]: the IC50 under setting [1] was found to be 16.7 nM. With `CNC(=O)c1c(-c2ccc(F)cc2)oc2cc(N(Cc3cccnc3)S(C)(=O)=O)c(-c3ccc(OC)c(-c4nc5c(F)cccc5o4)c3)cc12` [Example 707], the IC50 under setting [1] was found to be 4.93 nM. Same read-out and setting: to `CNC(=O)c1c(-c2ccc(F)cc2)oc2cc(N(Cc3cccnc3)S(C)(=O)=O)c(-c3ccc(OC)c(-c4nc5c(C#N)cccc5o4)c3)cc12` [Example 708] belongs 3.95 nM.
